Test results taken from patent US7579373B2, “Targeted bisplatinum polyamines as pro-drugs: selective release of platinum” (Virginia Commonwealth University, priority 2002, dated 2009).
pIC50: −log10 of the molar value. Read-outs that look alike come from different tables or passages of the source.

Legend:
L1210/0 [1] = assay: Growth inhibition in L1210/0 cells; type: cell-based, murine; conditions: 2 hours of exposure; mean (±SE), 3 experiments of 2 determinations
Description: To examine the pro-drug potential in a biological setting, a comparison of the pharmacological properties of the blocked polyamine compounds in L1210 murine leukemia cells was undertaken.

L1210/DDP [2] = assay: Growth inhibition in L1210/DDP cells; type: cell-based, murine; conditions: for pIC50: 2 hours of exposure, mean (±SE), 3 experiments of 2 determinations; for RF, resistance factor: IC50 L1210/DDP / IC50 L1210/0, 2 hours of exposure
L1210/0 [3] = assay: Cellular accumulation in L1210/0 cells; type: cell-based, murine; conditions: 2 hours of exposure; (±SE), 3 experiments of 2 determinations
Procedure: (§1) Cellular accumulation. The cellular accumulation assays followed published procedures (7). Briefly, cells were resuspended at 10^7/mL in media supplemented with […]. Platinum complexes were added, and samples were incubated at 37° C. in 5% CO2. At 0 and 2 hours aliquots were removed for determination of cell concentrations and for measurement of platinum content. For the latter, aliquots were washed three times in cold phosphate buffered saline, resuspended in 1% Triton-X in water, and sonicated. Platinum content was measured by flameless atomic absorption spectroscopy.
(§2) The cellular accumulation of the blocked Pt compound 2 was also investigated. […] Based solely on charge considerations the BOC-spermidine with a charge of 2+ should have cellular uptake similar to 1,1/t,t (n=6). The enhanced uptake could be explained by some hydrolysis in media or plasma producing small amounts of the protonated 1,1/t,t-spermidine. Considering the potency of polynuclear-polyamine compounds, a small percentage of hydrolysis could have a significant impact on in vivo activity.

L1210/DDP [4] = assay: Cellular accumulation in L1210/DDP cells; type: cell-based, murine; conditions: 2 hours of exposure; (±SE), 3 experiments of 2 determinations
Procedure: as §1, §2

A2780 = assay: SRB growth inhibition assay, A2780; type: cell-based, human; conditions: 96 h exposure
Procedure: (§3) Cell culture. A2780, A2780/CDDP, CH1, CH1/CDDP, 41M and 41M/CDDP cell lines were used in this study and maintained according to published procedures. (8,9).
(§4) Growth inhibition assay. The Sulforhodamine B (SRB) assay was used to determine growth inhibition potency of platinum drugs (10). The cells were seeded in 96-well microtitre plates at 3-8×10^3 cells/well in 160 μL growth medium and allowed to attach overnight. Platinum agents were then added after serial dilution in quadruplicate wells and exposed to cells for 2 or 96 hours. After the 2 hours drug incubations were complete, plates were washed free of drug with phosphate-buffered saline (PBS) and then refed with normal growth medium for a further 94 hours. Quantitation of cell growth in treated and control wells was then assessed using 0.4% SRB dissolved in 1% acetic acid. IC50 values were determined graphically.
(§5) Of special interest is the remarkably low value for 4 (Fmoc) in A2780 cells.

A2780/CDDP = assay: SRB growth inhibition assay, A2780/CDDP; type: cell-based, human; conditions: for pIC50: 96 h exposure; for RF A2780/CDDP: IC50 resistant/IC50 parent line, 96 h
Procedure: as §3
as §4, with “graphically. […]” for “graphically.”

CH1 = assay: SRB growth inhibition assay, CH1; type: cell-based, human; conditions: 96 h exposure
Procedure: as §3, §4, §5

CH1/CDDP = assay: SRB growth inhibition assay, CH1/CDDP; type: cell-based, human; conditions: for pIC50: 96 h exposure; for RF CH1/CDDP: IC50 resistant/IC50 parent line, 96 h
Procedure: as §3
as §4, with “graphically. […]” for “graphically.”

41M = assay: SRB growth inhibition assay, 41M; type: cell-based, human; conditions: 96 h exposure
Procedure: as §3, §4, §5

[5] = type: physicochemical; conditions: for Rate constant for the deprotection: first order; for % 1 (percentage of 1 of the overall integration in the chromatogram after incubation): uncorrected
Procedure: Analyses of the products and hydrolysis studies were carried out on an analytical Beckman System Gold Nouveau HPLC instrument with UV detection at 215 nm. A Lichrosphere RP-8 column (5 μm particle size, dimensions 250 mm×4 mm) was used with a solvent gradient from water/methanol 97:3 (0.05 M NaClO4, 1% NaCl) to water/methanol 70:30 (0.05 M NaClO4, 2% NaCl).
Hydrolysis Study. For the hydrolysis experiments 10^−3 mMol complex were dissolved in 1 mL of nanopure water. The pH of the solutions was adjusted by addition of HNO3 (0.1 M, 0.01 M) and NaOH (0.1 M, 0.01 M), respectively. The samples were incubated in a water bath at 37° C. and aliquots of 20 μL were taken from the bulk solution for HPLC analysis. The pH values of the samples were controlled in regular intervals and readjusted if necessary.
The hydrolysis of the protective groups of compounds 2-4 was monitored at 37° C. at various pH values. […] In addition, the chromatogram of 2 contained a peak of a minor impurity (ca 0.4%) which remained unchanged during the timecourse of the reaction. Deprotection of the secondary amino function leads to the appearance of a signal for the unprotected spermidine complex 1 that, as a consequence of the increased cationic charge, is well separated from the signal of the N4 blocked precursor. The area percentage of the integrated signal of the unprotected species is taken as an estimate for the amount of hydrolysis at a given timepoint. To allow for a more accurate quantitative comparison of results, the extinction coefficients for compounds 1-4 were determined at 215 nm (Table 1). The integral values of the blocked compounds have been corrected for the higher absorbance of these species at the observed wavelength compared to the unprotected species 1. Table 2 provides a summary of the amount of hydrolysis for all samples before and after the correction. Rate constants were calculated based on the corrected integral values.
The hydrolysis of the blocking groups of on the N4 position of compounds 5-7 was monitored at 37° C. over a pH range of 6-8.
The amount of 1,1/t,t-spermidine released over time is depicted in FIG. 8. No other products were detected, trifluoroacetate, originating from the hydrolysis reaction, is not retained on the column under the present conditions and coelutes with the other anions (Cl^− from 5, NO3^− from pH adjustment). In order to obtain rate constants for the conversion of 7 to 1,1/t,t-spermidine, the integral values of the chromatograms were corrected for the different absorption of the species at the observed wavelength (ε215: 1, 3.64·10^3; 5, 7.62·10^3; 6, 10.4·10^3; 7, 9.46·10^3 L.Mol^−1 .cm^−1). Concentrations were calculated based on the assumption that the sum of the concentrations of both species at every time point equals the original concentration of 7 at the start of the experiment. First order rate constants were obtained using the program MicroMath Scientist Version 2.01. The results are summarized in Table 3 and compared with values obtained for BOC and Fmoc protected spermidine complexes.

[6] = pH 5, 37° C., time 42 d (2), 30 d (3), 41 d (4)
[7] = pH 6, 37° C., time 42 d (2), 42 d (3), 41 d (4)
[8] = pH 7, 37° C., time 25 d (2), 41 d (4)

Compound	pIC50 (L1210/0 [1])	pIC50 (L1210/DDP [2])	RF, resistance factor (L1210/DDP [2])	Accumulation L1210/0 (L1210/0 [3])	Accumulation L1210/DDP (L1210/DDP [4])	pIC50 (A2780)	pIC50 (A2780/CDDP)	RF A2780/CDDP (A2780/CDDP)	pIC50 (CH1)	pIC50 (CH1/CDDP)	RF CH1/CDDP (CH1/CDDP)	pIC50 (41M)	% 1, corrected for the different extinction coefficients at 215 nm [5, 6]	Rate constant for the deprotection ([5]; pH 5, 37° C.)	% 1 (percentage of 1 of the overall integration in the chromatogram after incubation) [5, 6]	% 1, corrected for the different extinction coefficients at 215 nm [5, 7]	Rate constant for the deprotection ([5]; pH 6, 37° C.)	% 1 (percentage of 1 of the overall integration in the chromatogram after incubation) [5, 7]	% 1, corrected for the different extinction coefficients at 215 nm [5, 8]	Rate constant for the deprotection ([5]; pH 7, 37° C.)	further results
N.N.[Cl][Pt][Cl] [cisplatin, reference compound]	5.89	4.23	44	5.0 (0.89) attamol Pt complex/cell	1.5 (0.76^ attamol Pt complex/cell	5.80	4.92	7.5	6.47	5.96	3.2	5.64									
N.N.N.N.NCCCCCCN.[Cl][Pt+].[Cl][Pt+] [1,1/tt, [trans-{PtCl(NH3)2}2H2N(CH2)6NH2]^2+, reference compound]	5.43	4.80	4.3	3.8 (0.70) attamol Pt complex/cell	0.67 (0.21) attamol Pt complex/cell																
N.N.N.N.NCCCCN(CCCN)C(=O)OCC1c2ccccc2-c2ccccc21.[Cl-].[Cl-].[Cl][Pt+].[Cl][Pt+] [Compound 4, [{trans-Pt(NH3)2Cl}2——N^4-Fmoc-spermidine-N^1,N^8]Cl2]						6.08	4.19	77	4.34	4.21	1.3	< 4.00	[1.0] %	3.99 (±0.96) · 10^−9 s^−1	0.14%	[3.0] %	9.74 (±0.88) · 10^−9 s^−1	0.45%	[19.6] %	6.12 (±0.09) · 10^−8 s^−1	hydrolyzed species observed (HPLC profile) ([5]; pH 5 and 6, 37° C.): only minor amounts; % 1 (percentage of 1 of the overall integration in the chromatogram after incubation) [5, 8]: 3.4%; free spermidine complex released (HPLC profile) ([5]; pH 7 and 8, 37° C.): considerable amounts; % 1, corrected for the different extinction coefficients at 215 nm ([5]; pH 8, 37° C., time 30 d (4)): [35.2] %; Rate constant for the deprotection ([5]; pH 8, 37° C.): 1.44 (±0.07) · 10^−7 s^−1; % 1 (percentage of 1 of the overall integration in the chromatogram after incubation) ([5]; pH 8, 37° C., time 30 d (4)): 7.3%
N.N.N.N.NCCCCN(CCCN)C(=O)OCc1ccccc1.[Cl-].[Cl-].[Cl][Pt+].[Cl][Pt+] [Compound 3, [{trans-Pt(NH3)2Cl}2— —N^4-CBz-spermidine-N^1,N^8]Cl2]						4.62	4.00	4.2	4.60	4.37	1.7	< 4.00	[0.13] %		0.05%	[0.12] %		0.05%			amount of 1 detected in the samples ([5]; pH 5 and 6, 37° C., over the complete timecourse): below 0.1%
CC(C)(C)OC(=O)N(CCCN)CCCCN.N.N.N.N.[Cl-].[Cl-].[Cl][Pt+].[Cl][Pt+] [Compound 2, [{trans-Pt(NH3)2Cl}2——N^4-BOC-spermidine-N^1,N^8]Cl2]	5.90	5.34	3.7	5.0 (0.63) attamol Pt complex/cell	4.8 (0.75) attamol Pt complex/cell	5.68	4.72	9.0	5.10	4.96	1.4	4.77	[15.1] %	4.65 (±0.04) · 10^−8 s^−1		[13.8] %	4.29 (±0.05) · 10^−8 s^−1		[6.6] %	3.12 (±0.04) · 10^−8 s^−1	Rate constant for the deprotection ([5]; pH 6.6, 37° C.): 3.51 (±0.05) · 10^−8 s^−1
